Results as given in patent US10409869B2, “(R)- and (S)-1-(3-(3-N,N-dimethylaminocarbonyl)phenoxyl-4-nitrophenyl)-1-ethyl-N,N'-bis (ethylene)phosphoramidate, compositions and methods for their use and preparation” (OBI Pharma, Inc., priority 2015, dated 2019).

Key:
Assay type in all cases: in vivo, Cynomolgus monkeys
[1] = Body weight in monkeys, 2 mg/kg 30-min IV infusion
Method: (§1) TH 3423 and TH 3424 were tested in […] naïve monkeys (1 male and one female for each compound at 2 mg/kg) with 30-min intravenous infusion, TK sampling: on Day 1 and Day 15: 0.25, 0.5, 0.75, 1 and 2 hr post infusion initiation. Serum chemistry and hematology: pre-dose (Day 1), day 5, day 8 (pre-dose), day 15 (pre-dose), day 22 and day 28. Clinical observation: Daily during the study, total 35 days. Food consumption: Daily during the study, total 35 days. Bodyweight measurement: Twice weekly for five weeks.

[2] = Serum chemistry in monkeys, 2 mg/kg 30-min IV infusion
Method: as §1

[3] = Plasma concentration and TK after 30-min IV infusion at 2 mg/kg; conditions: Cynomolgus, cynomolgus monkey, plasma, iv, 2 mg/kg
Method: as §1

In the case of `C[C@H](OP(=O)(N1CC1)N1CC1)c1ccc([N+](=O)[O-])c(Oc2cccc(C(=O)N(C)C)c2)c1` (single isomer, unassigned) [TH3424], the body weight ([1]; Day 1, male) was 3.40, the body weight ([1]; Day 4, male) was 3.30 and the body weight ([1]; Day 8, Mean) was 3.20. It also gave an A/G ([2]; female, Day 1 (pre-dose)) of 1.9, an ALB ([2]; female, Day 1 (pre-dose)) of 46.1 g/L and an ALP ([2]; female, Day 1 (pre-dose)) of 134.2 U/L. For the same compound, the ALT ([2]; female, Day 1 (pre-dose)) was 61.6 U/L, the AST ([2]; female, Day 1 (pre-dose)) was 23.7 U/L and the BUN ([2]; female, Day 1 (pre-dose)) was 3.43 mM. For the same compound, the CK ([2]; female, Day 1 (pre-dose)) was 202 U/L, the CREA ([2]; female, Day 1 (pre-dose)) was 61 µM and the Ca ([2]; female, Day 1 (pre-dose)) was 2.51 mmol/L. For the same compound, the GLB ([2]; female, Day 1 (pre-dose)) was 24.1 g/L, the Glu ([2]; female, Day 1 (pre-dose)) was 3.34 mM and the K ([2]; female, Day 1 (pre-dose)) was 5.77 mmol/L. It also gave a Na ([2]; female, Day 1 (pre-dose)) of 143 mmol/L, a TBIL ([2]; female, Day 1 (pre-dose)) of 1.5 µM and a TC ([2]; female, Day 1 (pre-dose)) of 3.04 mM. It also gave a TG ([2]; female, Day 1 (pre-dose)) of 0.17 mmol/L, a TP ([2]; female, Day 1 (pre-dose)) of 70.2 g/L and a γ-GT ([2]; female, Day 1 (pre-dose)) of 47.3 U/L. The A/G ([2]; female, Day 8 (pre-dose)) was 1.4, the ALB ([2]; female, Day 8 (pre-dose)) was 41.8 g/L and the ALP ([2]; female, Day 8 (pre-dose)) was 200.2 U/L. The ALT ([2]; female, Day 8 (pre-dose)) was 37.7 U/L, the AST ([2]; female, Day 8 (pre-dose)) was 43.1 U/L and the BUN ([2]; female, Day 8 (pre-dose)) was 5.63 mM. The CK ([2]; female, Day 8 (pre-dose)) was 190 U/L, the CREA ([2]; female, Day 8 (pre-dose)) was 88 µM and the Ca ([2]; female, Day 8 (pre-dose)) was 2.37 mmol/L. For the same compound, the GLB ([2]; female, Day 8 (pre-dose)) was 30.6 g/L, the Glu ([2]; female, Day 8 (pre-dose)) was 5.91 mM and the K ([2]; female, Day 8 (pre-dose)) was 4.33 mmol/L. It also gave a Na ([2]; female, Day 8 (pre-dose)) of 143 mmol/L, a TBIL ([2]; female, Day 8 (pre-dose)) of 0.8 µM and a TC ([2]; female, Day 8 (pre-dose)) of 2.91 mM. It also gave a TG ([2]; female, Day 8 (pre-dose)) of 0.63 mmol/L, a TP ([2]; female, Day 8 (pre-dose)) of 72.4 g/L and a γ-GT ([2]; female, Day 8 (pre-dose)) of 36.2 U/L. The A/G ([2]; female, Day 15 (pre-dose)) was 1.6, the ALB ([2]; female, Day 15 (pre-dose)) was 38.5 g/L and the ALP ([2]; female, Day 15 (pre-dose)) was 151.5 U/L. The ALT ([2]; female, Day 15 (pre-dose)) was 31.9 U/L, the AST ([2]; female, Day 15 (pre-dose)) was 23.8 U/L and the BUN ([2]; female, Day 15 (pre-dose)) was 3.87 mM. It also gave a CK ([2]; female, Day 15 (pre-dose)) of 78 U/L, a CREA ([2]; female, Day 15 (pre-dose)) of 46 µM and a Ca ([2]; female, Day 15 (pre-dose)) of 2.2 mmol/L. The GLB ([2]; female, Day 15 (pre-dose)) was 23.8 g/L, the Glu ([2]; female, Day 15 (pre-dose)) was 2.8 mM and the K ([2]; female, Day 15 (pre-dose)) was 5.58 mmol/L. For the same compound, the Na ([2]; female, Day 15 (pre-dose)) was 132.59 mmol/L, the TBIL ([2]; female, Day 15 (pre-dose)) was 4.0 µM and the TC ([2]; female, Day 15 (pre-dose)) was 2.23 mM. The TG ([2]; female, Day 15 (pre-dose)) was 0.94 mmol/L, the TP ([2]; female, Day 15 (pre-dose)) was 62.3 g/L and the γ-GT ([2]; female, Day 15 (pre-dose)) was 34.2 U/L. It also gave an A/G ([2]; male, Day 1 (pre-dose)) of 2.5, an ALB ([2]; male, Day 1 (pre-dose)) of 50.5 g/L and an ALP ([2]; male, Day 1 (pre-dose)) of 287.5 U/L. For the same compound, the ALT ([2]; male, Day 1 (pre-dose)) was 43.0 U/L, the AST ([2]; male, Day 1 (pre-dose)) was 40.2 U/L and the BUN ([2]; male, Day 1 (pre-dose)) was 4.89 mM. It also gave a CK ([2]; male, Day 1 (pre-dose)) of 221 U/L, a CREA ([2]; male, Day 1 (pre-dose)) of 91 µM and a Ca ([2]; male, Day 1 (pre-dose)) of 2.38 mmol/L. For the same compound, the GLB ([2]; male, Day 1 (pre-dose)) was 19.9 g/L, the Glu ([2]; male, Day 1 (pre-dose)) was 4.5 mM and the K ([2]; male, Day 1 (pre-dose)) was 4.31 mmol/L. For the same compound, the Na ([2]; male, Day 1 (pre-dose)) was 147 mmol/L, the TBIL ([2]; male, Day 1 (pre-dose)) was 2.1 µM and the TC ([2]; male, Day 1 (pre-dose)) was 3.22 mM. It also gave a TG ([2]; male, Day 1 (pre-dose)) of 0.38 mmol/L, a TP ([2]; male, Day 1 (pre-dose)) of 70.4 g/L and a γ-GT ([2]; male, Day 1 (pre-dose)) of 62.2 U/L. For the same compound, the A/G ([2]; male, Day 8 (pre-dose)) was 2.0, the ALB ([2]; male, Day 8 (pre-dose)) was 43.3 g/L and the ALP ([2]; male, Day 8 (pre-dose)) was 225.2 U/L. The ALT ([2]; male, Day 8 (pre-dose)) was 31.2 U/L, the AST ([2]; male, Day 8 (pre-dose)) was 31.2 U/L and the BUN ([2]; male, Day 8 (pre-dose)) was 4.8 mM. It also gave a CK ([2]; male, Day 8 (pre-dose)) of 83 U/L, a CREA ([2]; male, Day 8 (pre-dose)) of 96 µM and a Ca ([2]; male, Day 8 (pre-dose)) of 2.33 mmol/L. The GLB ([2]; male, Day 8 (pre-dose)) was 21.8 g/L, the Glu ([2]; male, Day 8 (pre-dose)) was 4.15 mM and the K ([2]; male, Day 8 (pre-dose)) was 4.51 mmol/L. It also gave a Na ([2]; male, Day 8 (pre-dose)) of 147 mmol/L, a TBIL ([2]; male, Day 8 (pre-dose)) of 3.6 µM and a TC ([2]; male, Day 8 (pre-dose)) of 3.06 mM. It also gave a TG ([2]; male, Day 8 (pre-dose)) of 0.66 mmol/L, a TP ([2]; male, Day 8 (pre-dose)) of 65.1 g/L and a γ-GT ([2]; male, Day 8 (pre-dose)) of 44.9 U/L. It also gave an A/G ([2]; male, Day 15 (pre-dose)) of 2.2, an ALB ([2]; male, Day 15 (pre-dose)) of 36.8 g/L and an ALP ([2]; male, Day 15 (pre-dose)) of 174.8 U/L. For the same compound, the ALT ([2]; male, Day 15 (pre-dose)) was 45.0 U/L, the AST ([2]; male, Day 15 (pre-dose)) was 73.5 U/L and the BUN ([2]; male, Day 15 (pre-dose)) was 9.66 mM. For the same compound, the CK ([2]; male, Day 15 (pre-dose)) was 172 U/L, the CREA ([2]; male, Day 15 (pre-dose)) was 58 µM and the Ca ([2]; male, Day 15 (pre-dose)) was 2.14 mmol/L. For the same compound, the GLB ([2]; male, Day 15 (pre-dose)) was 16.4 g/L, the Glu ([2]; male, Day 15 (pre-dose)) was 1.47 mM and the K ([2]; male, Day 15 (pre-dose)) was 6.05 mmol/L. The Na ([2]; male, Day 15 (pre-dose)) was 136.14 mmol/L, the TBIL ([2]; male, Day 15 (pre-dose)) was 2.1 µM and the TC ([2]; male, Day 15 (pre-dose)) was 1.44 mM. It also gave a TG ([2]; male, Day 15 (pre-dose)) of 0.41 mmol/L, a TP ([2]; male, Day 15 (pre-dose)) of 53.2 g/L and a γ-GT ([2]; male, Day 15 (pre-dose)) of 36.7 U/L. For the same compound, the AUC(0-inf) ([3]; both sexes, Mean) was 1460 ng·h/mL, the AUC(0-t) ([3]; both sexes, Mean) was 1460 ng·h/mL and the AUC(0-inf) ([3]; female) was 1200 ng·h/mL. For the same compound, the AUC(0-t) ([3]; female) was 1200 ng·h/mL, the AUC(0-inf) ([3]; male) was 1730 ng·h/mL and the AUC(0-t) ([3]; male) was 1720 ng·h/mL.
